Experiment [1] is described as follows: Delayed type hypersensitivity (DTH) testing. The format is in vivo, human. To be noted: for Induration area, DTH testing: 48 hours following intradermal injection of individual peptide, after four vaccinations. How it is done: Delayed type hypersensitivity (DTH) testing was carried out 1 month after the final vaccination. […] Induration of […]10 mm^2 at 48 hours after injection was considered positive.

For experiment [2], the system named is PBMCs. Description: (3H)-thymidine proliferation assay. In kind it is cell-based, human. The conditions noted are these: for stimulation index: 10 μg/ml peptide. Here is the method: FIG. 4. Cell-mediated response to peptide 5 in trial subject 016, measured over the course of the vaccination schedule. Patient PBMCs were stimulated with 10 μg/ml peptide 5, incubated in vitro for 6 days, pulsed with ^3H-thymidine for 18 hours and then proliferation was assessed by ^3H-thymidine incorporation.
Peripheral blood mononuclear cells (PBMCs) were plated at a concentration of 1×10^5 cells/well for thymidine proliferation and ELISpot assays and at 1×10^6 cells/well (24 well plates) for the CFSE proliferation assay. ELISpot plates were coated with mouse anti-human IFN-γ antibody (Diaclone, France) and cells for CFSE assay were stained with 5 μM CFSE-FITC (Molecular Probes, Eugene, Oreg.). All PBMCs were in RPMI supplemented with 2 mM L-glutamine, 10 mM HEPES, 100 U/mL penicillin/streptomycin and 10% human AB serum (Australian Red Cross Blood Service).
The recall antigens CMV lysate, (1/2000 dilution; BioWhittaker, Walkersville, Md.) and tetanus toxoid (2.5 Lfu/ml; CSL) were also tested. PBMCs were incubated at 37° C. and 5% CO2 atmosphere for 20 hours (ELISpot) or 6 days (proliferation assays).
In the thymidine proliferation assay, cells were pulsed with 0.5 μCi/well [methyl-^3H]-thymidine (Amersham, Buckinghamshire, UK) and harvested 18 hours later. [^3H]-thymidine incorporation was measured by liquid scintillation counting. A sample was considered to be positive when the stimulation index^22 for each well in the quadruplicate sample exceeded the mean of unstimulated cells by at least three standard deviations.

The test system of experiment [3] is PBMCs. Description: CFSE proliferation assay. In kind it is cell-based, human. The conditions noted are these: subject 016, visit 5.
Experiment [4] deals with serum antibodies. As to the kind of experiment: Immunization of sheep with the vaccine, anti-peptide ELISA. The conditions noted are these: two sheep.
In experiment [5] the test system is serum antibodies. Description: ELISA for serum antibodies specific for the individual vaccine peptides, human sera.
Where [6] appears, read: non-trial cancer controls, n = 54, sera 1:25 dilution.
The mark [7] stands for this setting: normal controls, n = 30, not vaccinated.
Where [8] appears, read: trial subjects who completed four vaccinations, n = 6, detectable response at any time point considered positive.

We go through one substance from patent US20080241177A1 (priority 2003, published 2008).

As to “H-LEWVGFIRSKAYGAATAYAASMKGRVTI-OH [Peptide 5]”, the “Induration area, DTH testing” value in experiment [1] (patient 012) amounted to 165 mm^2; in experiment [1] (patient 014), 16 mm^2; in experiment [1] (patient 015), 24 mm^2; in experiment [1] (patient 016) it was 269 mm^2; in experiment [1] (patient 017), 373 mm^2; in experiment [1] (patient 018) it was 94 mm^2. In experiment [1] (six trial patients who underwent DTH testing), the “Number of patients with a peptide-specific DTH response” value is reported as “all six”. Also, the stimulation index in the experiment with PBMCs [2] (patient 016, visit 3 (1 month after vaccination 2)) is recorded as 8.88; in the experiment on PBMCs [2] (patient 016, visit 4 (1 month after vaccination 3)) it was 64.6; in the experiment on PBMCs [2] (patient 016, visit 5 (1 month after vaccination 4)), 22.2. The “First appearance of peptide-specific proliferative response” value in the experiment with PBMCs [2] (patient 016, maximal after three vaccinations) is recorded as “visit 3”. Further, the “Specific proliferative response, % of circulating CD3 and CD4 positive cells” value with PBMCs [3] is 5.5%. Moreover, in the experiment on serum antibodies [4], the “Serum antibody titres, first versus second immunized sheep” value is recorded as “equivalent”. The “Polyclonal sera with reactivity to peptide obtained from immunized sheep” value in the experiment with serum antibodies [4] (200 μg peptide mixture in CpG DNA adjuvant, prime and boost) was “obtained from both sheep”. Also, in the experiment with serum antibodies [5] (setting [6]), the “Number of individuals with a humoral response to the vaccine peptides, Cancer controls n = 54” value is recorded as 3. Further, in the experiment on serum antibodies [5] (setting [6]), the “Percent of individuals with a humoral response to the vaccine peptides, Cancer controls n = 54” value amounted to 5.6%. Moreover, in the experiment on serum antibodies [5] (setting [7]), the “Number of individuals with a humoral response to the vaccine peptides, Normal controls n = 30” value is given as 2. Moreover, the “Percent of individuals with a humoral response to the vaccine peptides, Normal controls n = 30” value in the experiment with serum antibodies [5] (setting [7]) stood at 6.7%. Moreover, the “Isotype of peptide-specific serum antibodies” value in the experiment on serum antibodies [5] (subject 015) and with serum antibodies [5] (subject 016) was “IgG3” in each case. Moreover, the “Number of individuals with a humoral response to the vaccine peptides, Trial subjects n = 6” value in the experiment with serum antibodies [5] (setting [8]) is reported as 2; with serum antibodies [5] (trial subjects who completed four vaccinations, n = 6, detectable response at any time point considered positive, listed as peptide 5), “two”. Further, the “Percent of individuals with a humoral response to the vaccine peptides, Trial subjects n = 6” value with serum antibodies [5] (setting [8]) stood at 33.3%.
